These results are taken from patent US9371295B2, “Compounds for use in the treatment of disorders that are ameliorated by inhibition of HDAC” (IRBM—Science Park S.p.A., priority 2012, dated 2016).

What is called pIC50 is the negative decadic logarithm of the IC50, by convention in mol/L.

One assay addresses T1, HDAC1 (Homo sapiens, UniProt Q13547).
T1 construct: made in house
The experiment in a line: HDAC1 assay (Fluor-de-Lys fluorescent deacetylase assay). It counts as biochemical. The conditions noted are these: read-out: hHDAC IC50. The essentials: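 Serially diluted compounds were pre-incubated with purified FLAG-tagged HDAC1 (1-2 nM final; from transfected HeLa cells) or HeLa nuclear extract, then given the Fluor-de-Lys acetyl-lysine substrate/developer; deacetylation read as fluorescence. Reactions were stopped with TSA (3 uM final).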

The test system of the next assay is K562 cells. The experiment in a line: Antiproliferative effect on K562 cells (cell number after 5 days). The class given is cell-based. As to conditions: Homo sapiens, 120 h, 5 days culture, average of three experiments. The procedure: The biological activity of the compounds of the present application was evaluated by examining the capacity to modulate the expression of γ-globin genes in the human K562 cell line, which is capable of differentiating in the erythroid manner by expressing genes for γ-globin if treated with modifiers of the biological response that are suitable for the purpose (Bianchi et al, J. Haematol., 113, 4, p. 951-961, 2001). The human K562 cells were cultured in RPMI 1640 medium (Sigma, St Louis, Mo., USA) supplemented with 10% foetal bovine serum (FBS; Analitical de Mori, Milan, Italy), 100 units/mL penicillin and 100 μg/mL streptomycin. Cell growth was determined according to cell number/ml, using a cell counter (Coulter Electronics, Hialeah, Fla., USA). For experiments, K562 cell cultures were initiated at 3×10^4/mL and the chemical inducers at the indicated concentrations added. Following 3-5 days incubation without a medium change erythroid differentiation was determined by staining the cells in a solution containing 0.2% benzidine in 0.5 M glacial acetic acid, 10% H2O2. Benzidine positivity indicates the presence of intracellular Hb.
The erythroid differentiation of K562 cells was investigated following treatment with selected compounds of the invention. The effect on cell proliferation was first determined for all tested molecules by culture of K562 cells in the presence of increasing concentration of the compounds. The cell number per sample was then determined after 3, 4 and 5 days. The IC50 values reported in Table 3 for the antiproliferative effect were calculated from the concentration of the compounds necessary to decrease the cell number to 50% of the values obtained in control untreated K562 cell cultures, after a 5 days culture period. Erythroid differentiation was measured by benzidine staining after 5, 6 and 7 days of cell culture and by quantitative reverse transcriptase polymerase-chain reaction (RT-qPCR) to quantify the expression of γ-globin mRNA. Different concentrations of tested compounds were employed because of their differing antiproliferative effects; accordingly, concentrations were chosen to maximize the erythroid induction effect without extensive reduction of cell viability. In Table 3 the % of benzidine positive cells and the increase in γ-globin mRNA assayed by RT-qPCR after 6 days of culture period are reported.

pIC50: −log10 of the molar value.

T1 sequence (Q13547 whole entry): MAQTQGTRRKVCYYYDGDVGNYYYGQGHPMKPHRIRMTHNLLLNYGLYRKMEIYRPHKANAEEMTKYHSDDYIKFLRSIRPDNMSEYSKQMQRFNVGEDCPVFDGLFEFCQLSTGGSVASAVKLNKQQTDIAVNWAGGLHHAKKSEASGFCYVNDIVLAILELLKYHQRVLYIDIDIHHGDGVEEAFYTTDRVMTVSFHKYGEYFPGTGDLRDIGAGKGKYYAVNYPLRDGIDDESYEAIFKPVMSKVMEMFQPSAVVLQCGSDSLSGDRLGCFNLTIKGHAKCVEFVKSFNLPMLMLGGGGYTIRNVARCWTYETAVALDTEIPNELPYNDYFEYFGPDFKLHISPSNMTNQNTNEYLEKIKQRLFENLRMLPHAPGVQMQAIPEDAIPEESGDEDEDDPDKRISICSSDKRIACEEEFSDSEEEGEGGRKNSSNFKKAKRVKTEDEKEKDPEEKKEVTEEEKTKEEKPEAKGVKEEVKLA

On to `CCC(=O)CCCCC[C@H](NC(=O)Cn1nc(C)nc1C)c1ncc(-c2cc3ccccc3nc2OC)o1` [Compound 80, (S)-2-(3,5-dimethyl-1H-1,2,4-triazol-1-yl)-N-(1-(5-(2-methoxyquinolin-3-yl)oxazol-2-yl)-7-oxononyl)acetamide], for which the results for the pIC50 at HDAC1 and in the assay on K562 cells were over 7.00 and 6.60, respectively.
For `CCC(=O)CCCCC[C@H](NC(=O)c1cnc(CN2CCCC2)s1)c1ncc(-c2cc3ccccc3nc2OC)o1` [Compound 82, (S)-N-(1-(5-(2-methoxyquinolin-3-yl)oxazol-2-yl)-7-oxononyl)-2-(pyrrolidin-1-ylmethyl)thiazole-5-carboxamide], the pIC50 is over 7.00 at HDAC1 and under 6.40 in the assay on K562 cells.
For `CCC(=O)CCCCC[C@H](NC(=O)C(C)(C)N(C)C)c1ncc(-c2cc3ccccc3n(C)c2=O)o1` [Compound 107, (S)-2-(dimethylamino)-2-methyl-N-(1-(5-(1-methyl-2-oxo-1,2-dihydroquinolin-3-yl)oxazol-2-yl)-7-oxononyl)propanamide], in that order: over 7.00 and 7.62.
Taken in the same sequence, the figures for `CCC(=O)CCCCC[C@H](NC(=O)CCN(C)C)c1ncc(-c2cc3ccccc3n(C)c2=O)o1` [Compound 106, (S)-3-(dimethylamino)-N-(1-(5-(1-methyl-2-oxo-1,2-dihydroquinolin-3-yl)oxazol-2-yl)-7-oxononyl)propanamide] were over 7.00 and 7.39.
For `CCC(=O)CCCCC[C@H](NC(=O)C(=O)N1CCN(C)CC1)c1ncc(-c2cc3ccccc3nc2OC)o1` [Compound 37, (S)-N-(1-(5-(2-methoxyquinolin-3-yl)oxazol-2-yl)-7-oxononyl)-2-(4-methylpiperazin-1-yl)-2-oxoacetamide], in that order: over 7.00 and 6.22.
As for `CCC(=O)CCCCC[C@H](NC(=O)C1CCN(C)CC1)c1ncc(-c2cc3ccccc3n(C)c2=O)o1` [Compound 109, (S)-1-methyl-N-(1-(5-(1-methyl-2-oxo-1,2-dihydroquinolin-3-yl)oxazol-2-yl)-7-oxononyl)piperidine-4-carboxamide], the negative-log IC50 (pIC50) at HDAC1 was over 7.00; in the assay on K562 cells, under 7.30.
Taken in the same sequence, the figures for `CCC(=O)CCCCC[C@H](NC(=O)C1CN(C)C1)c1ncc(-c2cc3ccccc3n(C)c2=O)o1` [Compound 92, (S)-1-methyl-N-(1-(5-(1-methyl-2-oxo-1,2-dihydroquinolin-3-yl)oxazol-2-yl)-7-oxononyl)azetidine-3-carboxamide] were over 7.00 and 7.30.
Taken in the same sequence, the figures for `CCC(=O)CCCCC[C@H](NC(=O)c1cncs1)c1ncc(-c2cc3ccccc3n(C)c2=O)o1` [Compound 110, (S)-N-(1-(5-(1-methyl-2-oxo-1,2-dihydroquinolin-3-yl)oxazol-2-yl)-7-oxononyl)thiazole-5-carboxamide] were over 7.00 and 6.70.
Taken in the same sequence, the figures for `CCC(=O)CCCCC[C@H](NC(=O)C1(N(C)C)CCCC1)c1ncc(-c2cc3ccccc3n(C)c2=O)o1` [Compound 111, (S)-1-(dimethylamino)-N-(1-(5-(1-methyl-2-oxo-1,2-dihydroquinolin-3-yl)oxazol-2-yl)-7-oxononyl)cyclopentanecarboxamide] were over 7.00 and 7.33.
Turning to `CCC(=O)CCCCC[C@H](NC(=O)C1(F)CN(C)C1)c1ncc(-c2cc3ccccc3nc2OC)o1` [Compound 67, (S)-3-fluoro-N-(1-(5-(2-methoxyquinolin-3-yl)oxazol-2-yl)-7-oxononyl)-1-methylazetidine-3-carboxamide], the negative-log IC50 (pIC50) on HDAC1 is over 7.00; in the assay on K562 cells, 6.02.
Consider `CCC(=O)CCCCC[C@H](NC(=O)C1CN(C)C1)c1ncc(-c2cc3ccccc3nc2OC)o1` [Compound 2, (S)-N-(1-(5-(2-methoxyquinolin-3-yl)oxazol-2-yl)-7-oxononyl)-1-methylazetidine-3-carboxamide], for which the pIC50 is over 7.00 at HDAC1 and 7.12 with K562 cells.
